Test results from ChEMBL document CHEMBL4411276, “Chemistry-oriented synthesis (ChOS) and target deconvolution on neuroprotective effect of a novel scaffold, oxaza spiroquinone” (Eur J Med Chem, 2019).

Tests used:
BV-2 = assay: Anti-inflammatory activity in mouse BV2 cells assessed as reduction in LPS-induced NO production pre-treated before LPS stimulation for 24 hrs by Griess reagent-based assay; assay type: functional, cell-based
[1] = Cytotoxicity against mouse BV2 cells assessed as cell survival after 24 hrs by MTT assay relative to control; assay type: cell-based, BV-2; set-up: concentration or dose not given beside the values; conditions: read-out: Survival
[2] = Cytotoxicity against LPS-stimulated mouse BV2 cells assessed as cell survival after 24 hrs by MTT assay relative to control; assay type: cell-based, BV-2; set-up: concentration or dose not given beside the values; conditions: read-out: Survival

Q: Which results are given for C=CCCC1COC2(C=CC(=O)C=C2)N(c2ccccc2)C1=O (stereo unspecified)?
A: IC50 (BV-2): 0.73 µM; viability at 24 h [1]: 89%; viability at 24 h [2]: 80.4%

Q: Which results are given for Cc1cc(C)cc(CC2COC3(C=CC(=O)C=C3)N(c3ccccc3)C2=O)c1 (stereo unspecified)?
A: IC50 (BV-2): 1.82 µM; viability at 24 h [1]: 94.2%; viability at 24 h [2]: 78%

Q: What does the source list for O=C1C=CC2(C=C1)OCC(Cc1ccc(C(F)(F)F)cc1)C(=O)N2c1ccccc1 (stereo unspecified)?
A: IC50 (BV-2): 1.65 µM; viability at 24 h [1]: 87.1%; viability at 24 h [2]: 84.1%

Q: Which results are given for CNC(=N)NCCC[C@H](N)C(=O)O [TILARGININE]?
A: IC50 (BV-2): 16.1 µM; viability at 24 h [2]: 60.5%

Q: For O=C1C=CC2(C=C1)OCC(Cc1ccc(C(F)(F)F)cc1[N+](=O)[O-])C(=O)N2c1ccccc1 (stereo unspecified), which IC50 (BV-2) is on record?
A: 0.97 µM

Q: For CC1COC2(C=CC(=O)C=C2)N(c2ccccc2)C1=O (stereo unspecified), which IC50 (BV-2) is on record?
A: 1.22 µM

Q: And the viability at 24 h [1]?
A: 86.1%

Q: What about the viability at 24 h [2] of the same compound?
A: 72.8%

Q: Which results are given for C=CCC1COC2(C=CC(=O)C=C2)N(c2ccccc2)C1=O (stereo unspecified)?
A: IC50 (BV-2): 1.03 µM; viability at 24 h [1]: 89.7%; viability at 24 h [2]: 84.6%

Q: Which IC50 (BV-2) does the source give for O=C1C=CC2(C=C1)OCC(Cc1ccccc1CS(=O)(=O)c1ccccc1)C(=O)N2c1ccccc1 (stereo unspecified) here?
A: 0.98 µM

Q: What about the viability at 24 h [1] of the same compound?
A: 97.5%

Q: And the viability at 24 h [2]?
A: 84.3%

Q: What does the source list for O=C1C=CC2(C=C1)OCC(Cc1ccccc1)C(=O)N2c1ccccc1 (stereo unspecified)?
A: IC50 (BV-2): 0.57 µM; viability at 24 h [1]: 82.1%; viability at 24 h [2]: 76.1%

Q: What does the source list for O=C1C=CC2(C=C1)OCC(Cc1ccc(F)cc1)C(=O)N2c1ccccc1 (stereo unspecified)?
A: IC50 (BV-2): 0.4 µM; viability at 24 h [1]: 82.9%; viability at 24 h [2]: 85.2%

Q: Which results are given for O=C1C=CC2(C=C1)OCC(Cc1cc(C(F)(F)F)ccc1Cl)C(=O)N2c1ccccc1 (stereo unspecified)?
A: IC50 (BV-2): 0.77 µM; viability at 24 h [1]: 70.5%; viability at 24 h [2]: 64.4%

Q: Which results are given for C=C(C)CC1COC2(C=CC(=O)C=C2)N(c2ccccc2)C1=O (stereo unspecified)?
A: IC50 (BV-2): 0.45 µM; viability at 24 h [1]: 91.4%; viability at 24 h [2]: 80.1%

Q: Which IC50 (BV-2) does the source give for O=C1C=CC2(C=C1)OCC(Cc1c(F)cccc1C(F)(F)F)C(=O)N2c1ccccc1 (stereo unspecified) here?
A: 0.6 µM

Q: And the viability at 24 h [1]?
A: 84.4%

Q: And the viability at 24 h [2]?
A: 71.1%

Q: Which results are given for O=C1C=CC2(C=C1)OCCC(=O)N2c1ccccc1?
A: IC50 (BV-2): 1.3 µM; viability at 24 h [1]: 102%; viability at 24 h [2]: 79.8%

Q: What does the source list for O=C1C=CC2(C=C1)OCC(Cc1ccc(Br)cc1)C(=O)N2c1ccccc1 (stereo unspecified)?
A: IC50 (BV-2): 1.38 µM; viability at 24 h [1]: 82.7%; viability at 24 h [2]: 72%

Q: Which IC50 (BV-2) does the source give for O=C1C=CC2(C=C1)OCC(Cc1ccc([N+](=O)[O-])cc1)C(=O)N2c1ccccc1 (stereo unspecified) here?
A: 0.43 µM

Q: What about the viability at 24 h [1] of the same compound?
A: 95.5%

Q: And the viability at 24 h [2]?
A: 82.7%

Q: What does the source list for O=C1C=CC2(C=C1)OCC(Cc1cccc(Br)c1)C(=O)N2c1ccccc1 (stereo unspecified)?
A: IC50 (BV-2): 0.54 µM; viability at 24 h [1]: 96%; viability at 24 h [2]: 74%

Q: For O=C1C=CC2(C=C1)OCC(Cc1ccc(Cl)cc1)C(=O)N2c1ccccc1 (stereo unspecified), which IC50 (BV-2) is on record?
A: 0.54 µM

Q: And the viability at 24 h [1]?
A: 91%

Q: What about the viability at 24 h [2] of the same compound?
A: 79%
